Test results: US10077265B2, “Substituted oxopyridine derivatives” (BAYER PHARMA AKTIENGESELLSCHAFT, priority 2014, dated 2018)

Target: human plasma kallikrein (Homo sapiens (Human), UniProt P03952)
Assay: Determination of the plasma kallikrein activity (fluorogenic peptide substrate)
Type: biochemical
Conditions: plasma kallikrein from Kordia, substrate H-Pro-Phe-Arg-AMC, 30 min at 22° C.
Experimental: To determine the plasma kallikrein inhibition of the substances according to the invention, a biochemical test system is used which utilizes the reaction of a peptidic plasma kallikrein substrate to determine the enzymatic activity of human plasma kallikrein. Here, plasma kallikrein cleaves from the peptic plasma kallikrein substrate the C-terminal aminomethylcoumarin (AMC), the fluorescence of which is measured. The determinations are carried out in microtitre plates.
1 μl of the diluted substance solutions is placed into each of the wells of white microtitre plates from Greiner (384 wells). 20 μl of assay buffer (50 mM Tris/HCl pH 7.4; 100 mM sodium chloride solution; 5 mM of calcium chloride solution; 0.1% of bovine serum albumin) and 20 μl of plasma kallikrein from Kordia (0.6 nM in assay buffer) are then added successively. After 15 min of incubation, the enzyme reaction is started by addition of 20 μl of the substrate H-Pro-Phe-Arg-AMC dissolved in assay buffer (10 μM in assay buffer) from Bachem, the mixture is incubated at room temperature (22° C.) for 30 min and fluorescence is then measured (excitation: 360 nm, emission: 460 nm). The measured emissions of the test batches with test substance are compared to those of control batches without test substance (only dimethyl sulphoxide instead of test substance in dimethyl sulphoxide), and IC50 values are calculated from the concentration/activity relationships.

Chain of human plasma kallikrein (P03952 391-638): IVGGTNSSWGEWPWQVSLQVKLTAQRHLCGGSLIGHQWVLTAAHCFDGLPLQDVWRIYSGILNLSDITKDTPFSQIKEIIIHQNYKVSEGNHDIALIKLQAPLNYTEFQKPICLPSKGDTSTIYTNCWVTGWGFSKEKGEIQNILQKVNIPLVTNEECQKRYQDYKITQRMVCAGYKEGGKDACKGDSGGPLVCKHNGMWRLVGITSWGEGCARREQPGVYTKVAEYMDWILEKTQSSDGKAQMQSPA
Chain of human plasma kallikrein (P03952 20-390 partner): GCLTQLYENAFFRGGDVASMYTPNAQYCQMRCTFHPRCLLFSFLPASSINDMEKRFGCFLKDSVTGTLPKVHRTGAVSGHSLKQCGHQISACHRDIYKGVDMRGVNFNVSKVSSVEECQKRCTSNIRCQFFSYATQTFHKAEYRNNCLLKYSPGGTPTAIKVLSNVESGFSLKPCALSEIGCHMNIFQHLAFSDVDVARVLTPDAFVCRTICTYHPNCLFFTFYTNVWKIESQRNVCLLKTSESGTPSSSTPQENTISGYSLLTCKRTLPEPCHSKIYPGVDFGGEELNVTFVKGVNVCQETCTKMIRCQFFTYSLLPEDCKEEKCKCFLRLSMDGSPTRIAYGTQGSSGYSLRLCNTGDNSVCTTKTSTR

SMILES | IC50
CCC(C(=O)Nc1ccn2ncc(C(=O)O)c2c1)n1cc(OC)c(-c2cc(Cl)ccc2C#N)cc1=O (racemic) [Example 1, 5-({2-[4-(5-Chloro-2-cyanophenyl)-5-methoxy-2-oxopyridin-1(2H)-yl]butanoyl}amino)pyrazolo-[1,5-a]pyridine-3-carboxylic acid (racemate)] | 5 nM
COCCC(C(=O)Nc1ccn2ncc(C(=O)O)c2c1)n1cc(OC)c(-c2cc(Cl)ccc2C#N)cc1=O (racemic) [Example 2, 5-({2-[4-(5-Chloro-2-cyanophenyl)-5-methoxy-2-oxopyridin-1(2H)-yl]-4-methoxybutanoyl}-amino)pyrazolo[1,5-a]pyridine-3-carboxylic acid (racemate)] | 2.5 nM
COCCC(C(=O)Nc1ccn2ncc(C(=O)N(C)C)c2c1)n1cc(OC)c(-c2cc(Cl)ccc2C#N)cc1=O (racemic) [Example 6, 5-({2-[4-(5-Chloro-2-cyanophenyl)-5-methoxy-2-oxopyridin-1(2H)-yl]-4-methoxybutanoyl}amino)-N,N-dimethylpyrazolo[1,5-a]pyridine-3-carboxamide (racemate)] | 18 nM
CCCNC(=O)c1cnn2ccc(NC(=O)C(CCOC)n3cc(OC)c(-c4cc(Cl)ccc4C#N)cc3=O)cc12 (racemic) [Example 7, 5-({2-[4-(5-Chloro-2-cyanophenyl)-5-methoxy-2-oxopyridin-1(2H)-yl]-4-methoxybutanoyl}amino)-N-propylpyrazolo[1,5-a]pyridine-3-carboxamide (racemate)] | 6.4 nM
COCCNC(=O)c1cnn2ccc(NC(=O)C(CCOC)n3cc(OC)c(-c4cc(Cl)ccc4C#N)cc3=O)cc12 (racemic) [Example 8, 5-({2-[4-(5-Chloro-2-cyanophenyl)-5-methoxy-2-oxopyridin-1(2H)-yl]-4-methoxybutanoyl}amino)-N-(2-methoxyethyl)pyrazolo[1,5-a]pyridine-3-carboxamide (racemate)] | 3.8 nM
COCCCNC(=O)c1cnn2ccc(NC(=O)C(CCOC)n3cc(OC)c(-c4cc(Cl)ccc4C#N)cc3=O)cc12 (racemic) [Example 9, 5-({2-[4-(5-Chloro-2-cyanophenyl)-5-methoxy-2-oxopyridin-1(2H)-yl]-4-methoxybutanoyl}amino)-N-(3-methoxypropyl)pyrazolo[1,5-a]pyridine-3-carboxamide (racemate)] | 3 nM
COCCC(C(=O)Nc1ccn2ncc(C(=O)NCCOC(F)(F)F)c2c1)n1cc(OC)c(-c2cc(Cl)ccc2C#N)cc1=O (racemic) [Example 10, 5-({2-[4-(5-Chloro-2-cyanophenyl)-5-methoxy-2-oxopyridin-1(2H)-yl]-4-methoxybutanoyl}amino)-N-[2-(trifluoromethoxy)ethyl]pyrazolo[1,5-a]pyridine-3-carboxamide (racemate)] | 9.5 nM
COCCC(C(=O)Nc1ccn2ncc(C(=O)NCCC(F)(F)F)c2c1)n1cc(OC)c(-c2cc(Cl)ccc2C#N)cc1=O (racemic) [Example 11, 5-({2-[4-(5-Chloro-2-cyanophenyl)-5-methoxy-2-oxopyridin-1(2H)-yl]-4-methoxybutanoyl}amino)-N-(3,3,3-trifluoropropyl)pyrazolo[1,5-a]pyridine-3-carboxamide (racemate)] | 6.6 nM
COCCC(C(=O)Nc1ccn2ncc(C(=O)NCC(F)(F)F)c2c1)n1cc(OC)c(-c2cc(Cl)ccc2C#N)cc1=O (racemic) [Example 12, 5-({2-[4-(5-Chloro-2-cyanophenyl)-5-methoxy-2-oxopyridin-1(2H)-yl]-4-methoxybutanoyl}amino)-N-(2,2,2-trifluoroethyl)pyrazolo[1,5-a]pyridine-3-carboxamide (racemate)] | 5 nM
COCCC(C(=O)Nc1ccn2ncc(C(=O)NCCCO)c2c1)n1cc(OC)c(-c2cc(Cl)ccc2C#N)cc1=O (racemic) [Example 13, 5-({2-[4-(5-Chloro-2-cyanophenyl)-5-methoxy-2-oxopyridin-1(2H)-yl]-4-methoxybutanoyl}amino)-N-(3-hydroxypropyl)pyrazolo[1,5-a]pyridine-3-carboxamide (racemate)] | 5.2 nM
COCCC(C(=O)Nc1ccn2ncc(C(=O)NCCO)c2c1)n1cc(OC)c(-c2cc(Cl)ccc2C#N)cc1=O (racemic) [Example 14, 5-({2-[4-(5-Chloro-2-cyanophenyl)-5-methoxy-2-oxopyridin-1(2H)-yl]-4-methoxybutanoyl}amino)-N-(2-hydroxyethyl)pyrazolo[1,5-a]pyridine-3-carboxamide (racemate)] | 3.8 nM
